# Measured values: patent publication US20240300959A1, “BALASUBRAMIDE DERIVATIVE AND USE THEREOF IN PREPARATION OF MEDICINE FOR TREATING ACUTE LUNG INJURY” (Guangdong Pharmaceutical University, priority 2023, published 2024)
# What was measured:
# [1] = test system: inflammation genes in RAW264.7 macrophages stimulated by lipopolysaccharide; assay: qPCR expression level of inflammation genes in LPS-stimulated RAW264.7 macrophages; format: cell-based, mice; details: RAW264.7, LPS
# Protocol: RAW264.7 cells were inoculated into a 24-well plate at a density of 5×10^5 per well. When the cell density was 70%-80%, the RAW264.7 cells were pretreated with (+)3C-20 (5 μM, 10 μM, 20 μM). After 3 h, lipopolysaccharide (LPS, 100 ng/mL) was added into all wells for action for 2 h except for a control group. A supernatant was discarded, and the cells at the bottom of the plate were fully lysed with Trizol (Nanjing Vazyme, R401-01). RNA was extracted according to an RNA extraction instruction, and subjected to reverse transcription to obtain cDNA, followed by qPCR according to an amplification method at 95° C. for a total of 5 min (at 95° C. for 10 s, and at 60° C. for 30 s) in 40 cycles, and finally statistical calculation was performed by ΔCt.
# [2] = test system: TNF-α in bone marrow derived macrophages (BMDMs) stimulated by lipopolysaccharide; assay: TNF-α ELISA in LPS-stimulated bone marrow derived macrophages; format: cell-based, C57BL/6J mice; details: for Percentage of TNF-α in a model group (%): LPS 100 ng/mL 3 h
# Protocol: (1) Collection of bone marrow derived macrophages (BMDMs): C57BL/6J mice were sacrificed by dislocation of cervical vertebra, completely soaked and sterilized with 75% ethanol and placed faceup on a mouse board to fix the four limbs, the skin of the hind limbs was cut, the limbs were cut at ankle joints and femoral joints, and muscles and knee joints were removed. Precooled serum-free DMEM was sucked with a 1 mL syringe to rinse the bone marrow until a leg bone turned white, a rinsing solution was filtered with a 200-mesh filter membrane and then collected into a 15 mL centrifuge tube, centrifugation was performed at 500×g for 5 min, a supernatant was discarded, and a cell precipitate was resuspended with 1 mL of a red blood cell lysis buffer. After stomatocytosis was performed for 1 min, 5 mL of DMEM was added to stop the stomatocytosis, centrifugation was performed at 500×g for 5 min, a supernatant was discarded, and cells at a lower layer were resuspended overnight with DMEM containing 10% of FBS. Monocytes were collected by centrifugation and then resuspended with a DMEM culture medium containing 20% of FBS, and M-CSF was added at a final concentration of 25 ng/mL. The cells were inoculated into a 96-well plate at a density of 6×10^5, cultured in a cell incubator with a CO2 concentration of 5% at 37° C. for 48 h, and then cultured by adding M-CSF with a final concentration of 25 ng/mL into each well for 48 h until the monocytes were subjected to adherent culture and differentiation to obtain macrophages.
# The expression level of an inflammatory factor TNF-α in a cell supernatant was detected according to an operation instruction of a commercial ELISA kit, and the cell viability at different administration concentrations of (+)3C-20 was determined according to an operation instruction of a CCK-8 kit.
# [3] = test system: mice with acute lung injury caused by intratracheal instillation of lipopolysaccharide; assay: Acute lung injury caused by lung exposure to bacterial endotoxin (intratracheal instillation of LPS); format: in vivo, ICR mice; details: for Content of TNF-α in a lung tissue homogenate (% of Model) / Area percentage of alveolar cells (%) / Lung index (%): 6 h after intratracheal LPS; for Area percentage of alveolar cells (%): H&E lung sections; for Change multiple of COX-2 / Change multiple of IL-1β / Change multiple of IL-6 / Change multiple of TNF-α / Change multiple of iNOS: lung tissue RT-PCR; for Body weight (Day 1) / Body weight (Day 2) / Body weight (Day 3): intratracheal LPS model, in g (unit assumed)
# Protocol: Grouping, administration and modeling of animals: Male ICR mice were used as experimental animals, which were randomly divided into a control group, a model group, a positive administration group and administration groups according to the body weight. The control group and the model group were administered with a solvent by intraperitoneal injection (the solvent was prepared from DMSO, Kolliphor HS15 and Saline at a ratio of 1:2:7), the positive administration group was administered with 5 mg/kg dexamethasone by intraperitoneal injection, and the administration groups were administered with (+)3C-20 at a concentration of 10 mg/kg and 50 mg/kg, respectively, by intraperitoneal injection. The dexamethasone and the (+)3C-20 were dissolved in the above solvent and were clear and transparent. The administration was continued for 3 days. 2 h after the last administration, the mice were anesthetized with 2.5% isoflurane, necks were disinfected, cortices of the necks were cut, and tracheae were separated. All other groups were administered with 50 μL of 10 mg/mL LPS (LPS dissolved in Saline) at a dose of 20 mg/kg by instillation while the control group was administered with 50 μL of Saline by intratracheal instillation (it.), and the cortices were sutured. 6 h after the instillation of LPS, the mice were sacrificed, and serum and lung tissues were taken for later use. Body weight and lung index: The mice were weighed and randomly divided on day 1 and continuously weighed for 3 days before administration. 2 h after the last administration, the mice were administered with 50 μL of […] LPS by intratracheal instillation. 6 h later, the mice were dissected, and the lungs were taken and weighed.
# On day 3, 6 h after the intratracheal instillation of LPS, a part of the mice were subjected to perfusion with PBS and treated with paraformaldehyde to fix the right lobe of the lungs, another part of the mice were dissected to obtain lungs, and the lungs were frozen with liquid nitrogen for later use. The fixed right lungs were stained with hematoxylin-eosin (H&E) after dehydration, paraffin embedding and sectioning. 40 mg of the frozen lungs were cut, 300 μL of an RIPA lysis buffer was added thereto and homogenized by starting for 45 s and stopping for 15 s at a frequency of 60 Hz in 4 cycles for full lysis, and then centrifuged at 12,000 rpm at 4° C. A supernatant was taken, the protein concentration was calibrated and adjusted with a BCA protein assay kit, and then the level of an inflammatory factor TNF-α in lung tissue homogenates of various groups was detected by a commercial TNF-α ELISA kit. Results are shown in Table 10, FIG. 10-1 and FIG. 10-2.
# A small amount of frozen lung tissues were taken, a Trizol lysis reagent was added thereto and fully ground, RNA was extracted according to an operation instruction of an RNA extraction kit, and the expression of inflammation related genes in the lung tissues was detected by an RT-PCR technology. Experimental results are shown in Table 11, FIG. 11-1 and FIG. 11-2.
# [4] = 10 mg/kg i.p., intratracheal LPS
# [5] = 50 mg/kg i.p., intratracheal LPS
structure (smiles),measurement,setting,value
O=C(CCc1ccc(C(F)(F)F)cc1)O[C@@H]1C(=O)NCCc2c([nH]c3ccccc23)[C@H]1c1ccc(C(F)(F)F)cc1 [(+)-3C-20],Change multiple of COX-2,[1]; 5 μM,4.20 ± 0.16
same,Change multiple of IL-1β,[1]; 5 μM,62.02 ± 7.52
same,Change multiple of IL-6,[1]; 5 μM,23.17 ± 0.9
same,Change multiple of TNF-α,[1]; 5 μM,11.03 ± 0.87
same,Change multiple of COX-2,[1]; 10 μM,3.95 ± 0.9
same,Change multiple of IL-1β,[1]; 10 μM,28.51 ± 0.4
same,Change multiple of IL-6,[1]; 10 μM,16.09 ± 0.24
same,Change multiple of TNF-α,[1]; 10 μM,6.00 ± 1.96
same,Change multiple of COX-2,[1]; 20 μM,3.49 ± 0.0^8
same,Change multiple of IL-1β,[1]; 20 μM,12.58 ± 1.72
same,Change multiple of IL-6,[1]; 20 μM,6.53 ± 0.31
same,Change multiple of TNF-α,[1]; 20 μM,4.49 ± 0.81
same,effective dose for anti-inflammatory activity (inhibition of expression of inflammation genes),[1],"5 μM, 10 μM or 20 μM"
same,Percentage of TNF-α in a model group (%),[2]; 0.1 μM,88.17 ± 7.91%
same,Percentage of TNF-α in a model group (%),[2]; 1 μM,86.35 ± 7.41%
same,Percentage of TNF-α in a model group (%),[2]; 2.5 μM,62.94 ± 8.54 %
same,Percentage of TNF-α in a model group (%),[2]; 5 μM,35.12 ± 4.63 %
same,effective dose for inhibiting the expression of TNF-α for the BMDMs,[2]; LPS,2.5 μM or 5 μM
same,Content of TNF-α in a lung tissue homogenate (% of Model),[3]; 10 mg/kg i.p.,90.587 ± 7.374 ^ % of Model
same,Area percentage of alveolar cells (%),[3]; 10 mg/kg i.p.,36.611 ± 1.64 %
same,Change multiple of COX-2,[3]; [4],2.05 ± 0.38
same,Change multiple of IL-1β,[3]; [4],13.04 ± 1.24
same,Change multiple of IL-6,[3]; [4],17.12 ± 2.28
same,Change multiple of TNF-α,[3]; [4],13.32 ± 0.94
same,Change multiple of iNOS,[3]; [4],4.56 ± 0.4
same,Lung index (%),[3]; 10 mg/kg intraperitoneal 3 days,0.656 ± 0.007%
same,Body weight (Day 1),[3]; 10 mg/kg intraperitoneal,27.67 ± 0.38
same,Body weight (Day 2),[3]; 10 mg/kg intraperitoneal,27.44 ± 0.43
same,Body weight (Day 3),[3]; 10 mg/kg intraperitoneal,27.93 ± 0.53
same,Content of TNF-α in a lung tissue homogenate (% of Model),[3]; 50 mg/kg i.p.,61.408 ± 6.525 % of Model
same,Area percentage of alveolar cells (%),[3]; 50 mg/kg i.p.,32.805 ± 0.814 %
same,Change multiple of COX-2,[3]; [5],1.14 ± 0.24
same,Change multiple of IL-1β,[3]; [5],11.94 ± 1.05
same,Change multiple of IL-6,[3]; [5],15.11 ± 1.58
same,Change multiple of TNF-α,[3]; [5],8.56 ± 1.21
same,Change multiple of iNOS,[3]; [5],3.75 ± 0.72
same,Lung index (%),[3]; 50 mg/kg intraperitoneal 3 days,0.591 ± 0.011 %
same,Body weight (Day 1),[3]; 50 mg/kg intraperitoneal,27.63 ± 0.48
same,Body weight (Day 2),[3]; 50 mg/kg intraperitoneal,27.04 ± 0.48
same,Body weight (Day 3),[3]; 50 mg/kg intraperitoneal,27 ± 0.61
same,"pathological lung injury compared with the model group, in words","[3]; 50 mg/kg, intratracheal LPS",obviously relieving pathological lung injury
